# From patent US10808003B2, “Amphipathic molecule based on tandem malonate and use thereof” (Industry-University Cooperation Foundation Hanyang …, priority 2017, dated 2020)
# Entries after “also recorded” stand apart in the source; their conditions may differ.
# How the values were obtained:
# [1] = target: T1, melibiose permease (MelBSt) (Salmonella typhimurium, UniProt P30878); test: MelBSt extraction and solubility at four temperatures, SDS-PAGE and western blotting; format: biochemical; details: 1.5 wt %, 90 minutes
# T1 construct: made in house; host or cells: E. coli DW2 cells (melB and lacZY), plasmid pK95AHB/WT MelBSt/CH10
# T1 sequence (P30878 whole entry): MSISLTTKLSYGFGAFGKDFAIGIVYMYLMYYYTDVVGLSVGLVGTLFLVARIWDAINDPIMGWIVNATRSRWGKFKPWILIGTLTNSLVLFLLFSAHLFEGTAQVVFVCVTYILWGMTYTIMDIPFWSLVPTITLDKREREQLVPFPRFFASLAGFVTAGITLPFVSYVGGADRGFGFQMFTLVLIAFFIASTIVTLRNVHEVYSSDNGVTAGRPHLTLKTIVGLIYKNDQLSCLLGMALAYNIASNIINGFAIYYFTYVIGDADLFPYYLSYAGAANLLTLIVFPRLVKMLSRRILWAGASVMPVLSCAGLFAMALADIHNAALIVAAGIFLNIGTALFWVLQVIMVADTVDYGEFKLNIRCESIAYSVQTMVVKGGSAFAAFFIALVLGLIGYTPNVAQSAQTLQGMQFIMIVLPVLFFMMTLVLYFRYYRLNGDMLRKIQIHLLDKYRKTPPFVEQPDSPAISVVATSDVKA
# Protocol: An experiment was performed to measure structural stability of Salmonella typhimurium melibiose permease (MelBSt) protein by TMGs. The MelBSt protein was extracted from a membrane using TMGs or DDM, and then an amount of the extracted protein and its structure were analyzed by SDS-PAGE and western blotting. A concentration of the amphipathic molecule used was 1.5 wt %, and two types of performance such as protein extraction efficiency and stabilization ability of the compound were simultaneously evaluated by extracting the protein at four temperatures (0, 45, 55, and 65° C.), incubating the protein for 90 minutes at the same temperatures, and measuring an amount of the protein remaining dissolved in an aqueous solution. The amount of the protein extracted and stabilized by each amphipathic molecule was expressed as a relative value (%) with respect to a total amount of the protein contained in a membrane sample not treated with an amphipathic molecule.
# Specifically, Salmonella typhimurium MelBSt (melibiose permease) having a 10-His tag at the C-terminus was expressed in E. coli DW2 cells (melB and lacZY) using plasmid pK95AHB/WT MelBSt/CH10. According to the method disclosed in the article written by A. S. Ethayathulla et al. (Nat. Commun. 2014, 5, 2009), cell growth and membrane preparation were performed. A protein assay was performed using a Micro BCA kit (Thermo Scientific, Rockford, Ill.). Using the protocol disclosed in Nat. Methods 2010, 7, 1003-1008 written by P. S. Chae et al., DDM or TMGs were evaluated for MelBSt stability. A MelBSt-containing membrane sample (the final protein concentration was 10 mg/mL) was incubated at four temperatures (0, 45, 55 and 65° C.) for 90 minutes in a 1.5% (w/v) DDM or TMG-containing solubilization buffer (20 mM sodium phosphate, pH 7.5, 200 mM NaCl, 10% glycerol, 20 mM melibiose). To remove insoluble material, ultracentrifugation was performed using a Beckman Optima™ MAX ultracentrifuge equipped with a TLA-100 rotor at 355,590 g at 4° C. for 45 minutes, and then 20 μg of each protein sample was separated using SDS-15% PAGE, followed by immunoblotting using a Penta-His-HRP antibody (Qiagen, Germantown, Md.). MelBSt was measured by an ImageQuant LAS 4000 biomolecular imager (GE Health Care Life Sciences) using a SuperSignal West Pico chemiluminescent substrate.
# [2] = Hydrodynamic radius of micelles by dynamic light scattering (DLS); format: physicochemical; details: micelles formed by each agent at 1.0 wt %
# Protocol: A method of measuring the radius of the micelles is not particularly limited, and any method well known in the art, for example, a DLS test may be used.
# (§1) Specifically, a CMC was measured using fluorescent staining and diphenylhexatriene (DPH), and the hydrodynamic radii (Rh) of micelles formed by each agent (1.0 wt %) were measured by a DLS test. The measured results were compared with those for the conventional amphipathic molecule (detergent), DDM, and thus are shown in Table 1.
# [3] = Critical micelle concentration by fluorescent staining with diphenylhexatriene (DPH); format: physicochemical; details: aqueous solution
# Protocol: A method of measuring CMC is not particularly limited, and any method well known in the art, for example, a fluorescent staining method using diphenylhexatriene (DPH) may be used.
# as §1
# [4] = tested on: LeuT (leucine transporter); test: LeuT stability by [3H]-Leu substrate binding, scintillation proximity assay (SPA); format: biochemical, Aquifex aeolicus; details: TMGs or DDM at CMC+0.04 wt %, 10 days at room temperature
# Protocol: An experiment of measuring LeuT protein stability for TMGs and TMMs was performed. (a) CMC+0.04 wt % or (b) CMC+0.2 wt % of each amphipathic molecule was used, and the evaluation of the LeuT protein stability was performed by taking an advantage of a characteristic of LeuT binding to a substrate through a scintillation proximity assay (SPA) using [^3H]-Leu. […]
# Specifically, wild type LeuT (leucine transporter) derived from a thermophilic bacterium, Aquifex aeolicus, was purified by a previously-disclosed method (G. Deckert et al., Nature 1998, 392, 353-358). LeuT was expressed in E. coli C41 (DE3) transformed with pET16b encoding a C-terminus 8×His-tagged transporter (the expression plasmid was provided by Dr E. Gouaux, Vollum Institute, Portland, Oreg., USA). In summary, following isolation of a bacterial membrane and lysis with 1% (w/v) DDM, the protein was allowed to bind to a Ni^2+-NTA resin (Life Technologies, Denmark), and eluted in 20 mM Tris-HCl (pH 8.0), 1 mM NaCl, 199 mM KCl, 0.05% (w/v) DDM and 300 mM imidazole. Afterward, the purified LeuT (approximately 1.5 mg/ml) was diluted with the same buffer used above, from which DDM and imidazole were removed, and then supplemented with TMGs or DDM at the final concentration of CMC+0.04% (w/v). […] SPA was performed using a buffer containing 450 mM NaCl and each of the TMGs and TMMs at the predetermined concentration. The SPA reaction is performed in the presence of 20 nM [^3H]-Leucine and 1.25 mg/ml copper chelate (His-Tag) YSi beads (Perkin Elmer, Denmark). A total [^3H]-Leucine binding degree of each sample was measured using a MicroBeta liquid scintillation counter (Perkin Elmer).
# [5] = target: T2, human β2 adrenergic receptor (β2AR) (Homo sapiens, UniProt P07550); test: β2AR stability by [3H]-dihydroalprenolol (DHA) ligand binding assay; format: biochemical; details: CMC+0.2 wt %; for long-term maintenance of binding between β2AR and ligand: 7-day incubation at room temperature, FIG. 14b; for initial β2AR receptor activity ([3H]-DHA binding): FIG. 14a
# T2 construct: made in house; host or cells: cell membrane
# T2 sequence (P07550 whole entry): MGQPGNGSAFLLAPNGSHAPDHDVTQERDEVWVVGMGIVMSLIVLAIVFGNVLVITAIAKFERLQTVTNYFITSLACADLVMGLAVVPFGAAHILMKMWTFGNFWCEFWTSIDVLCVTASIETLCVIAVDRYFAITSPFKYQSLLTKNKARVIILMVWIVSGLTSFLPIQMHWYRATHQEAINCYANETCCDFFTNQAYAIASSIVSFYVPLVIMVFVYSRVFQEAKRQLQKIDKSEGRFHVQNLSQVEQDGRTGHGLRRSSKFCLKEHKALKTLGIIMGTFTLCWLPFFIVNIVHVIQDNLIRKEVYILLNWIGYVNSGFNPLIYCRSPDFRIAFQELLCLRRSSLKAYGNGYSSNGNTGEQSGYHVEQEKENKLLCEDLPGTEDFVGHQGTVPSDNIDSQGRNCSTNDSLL
# Protocol: Experiments for measuring stability of a human β2 adrenergic receptor (β2AR) and a G-protein-coupled receptor (GPCR) by TMGs were performed. A receptor was extracted from a cell membrane using 1% DDM and purified with a 0.1% amphipathic molecule. The receptor purified with the DDM was diluted with a buffer solution containing DDM or TMGs to adjust the final concentration of the compound to CMC+0.2 wt %. β2AR solubilized by each amphipathic molecule was stored for 7 days at room temperature, and the sample was incubated with 10 nM [^3H]-dihydroalprenolol (DHA) supplemented with 0.5 mg/ml BSA for 30 minutes at room temperature to evaluate a ligand-binding ability at regular intervals during the experimental period. The mixture was loaded onto a G-50 column, and a liquid running through the column was collected using 1 ml of a binding buffer (20 mM HEPES containing 0.5 mg/ml BSA and 20×CMC of each amphipathic molecule, pH 7.5, 100 mM NaCl). In addition, 15 ml of a scintillation fluid was added, and receptor-bound [^3H]-DHA was measured using a scintillation counter (Beckman). A binding degree of the [^3H]-DHA was shown by a column graph (FIG. 14). The experiment was repeated three times.
# [6] = target: T3, uric acid-xanthine/H+ symporter (UapA) (Emericella nidulans, UniProt Q07307, G411V); test: Thermal/structural stability of UapA by CPM fluorescence assay; format: biochemical, Aspergillus nidulans; details: CMC+0.2 wt %, 125 minutes at 40° C., FIG. 10
# T3 construct: GFP; made in house; host or cells: Saccharomyces cerevisiae FGY217
# T3 sequence (Q07307 12-574 G411V): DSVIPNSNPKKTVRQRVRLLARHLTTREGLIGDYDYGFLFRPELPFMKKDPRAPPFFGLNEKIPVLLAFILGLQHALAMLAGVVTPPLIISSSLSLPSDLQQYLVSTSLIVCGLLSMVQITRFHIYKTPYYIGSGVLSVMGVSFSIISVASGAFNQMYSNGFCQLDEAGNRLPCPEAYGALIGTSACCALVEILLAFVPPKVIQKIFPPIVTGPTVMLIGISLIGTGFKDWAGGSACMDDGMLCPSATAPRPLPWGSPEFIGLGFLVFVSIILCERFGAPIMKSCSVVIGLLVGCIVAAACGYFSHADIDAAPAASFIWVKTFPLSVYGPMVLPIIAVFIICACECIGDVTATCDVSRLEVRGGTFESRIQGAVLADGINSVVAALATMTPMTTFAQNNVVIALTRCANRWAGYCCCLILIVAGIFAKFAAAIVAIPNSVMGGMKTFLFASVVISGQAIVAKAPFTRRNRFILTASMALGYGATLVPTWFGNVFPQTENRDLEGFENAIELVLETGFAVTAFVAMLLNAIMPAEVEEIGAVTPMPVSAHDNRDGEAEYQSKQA
# Protocol: An experiment of measuring structural stability of a uric acid-xanthine/H+ symporter (UapA) separated from Aspergillus nidulans by TMG was performed. The structural stability of UapA was evaluated using a sulfhydryl-specific fluorophore and N-[4-(7-diethylamino-4-methyl-3-coumarinyl)phenyl]maleimide (CPM).
# Specifically, UapAG411V1-11 (hereinafter, referred to as “UapA”) expressed as a GFP fusion protein from a Saccharomyces cerevisiae FGY217 strain, and the protein was separated using a sample buffer (20 mM Tris (pH 7.5), 150 mM NaCl, 0.03% DDM, 0.6 mM xanthine) according to a method disclosed in the article written by J. Leung et al. (Mol. Membr. Biol. 2013, 30, 32-42). The protein having a molecular weight of 100 kDa was concentrated to approximately 10 mg/mL using a cut-off filter (Millipore). The protein was diluted with a buffer containing each of the TMG-As (TMG-A11, TMG-A12, TMG-A13 and TMG-A14), TMG-Ts (TMG-T11, TMG-T12, TMG-T13 and TMG-T14), MNG-3 or DDM at a ratio of 1:150 to reach the final concentration of CMC+0.04 wt % or CMC+0.2 wt % in a Greiner 96-well plate. A CPM dye (Invitrogen) stored in DMSO (Sigma) was diluted with a staining buffer (20 mM Tris (pH 7.5), 150 mM NaCl, 0.03% DDM, 5 mM EDTA), and 3 μL of the staining buffer was added to each sample. The reaction mixture was incubated at a constant temperature for 125 minutes at 40° C. Fluorescence emission was recorded using a microplate spectrofluorometer set to each of excitation and emission wavelengths of 387 nm and 463 nm. A relative amount of folded proteins was plotted over time using GraphPad Prism.
Compound,amount of MelBSt solubilized / extraction efficiency ([1]; 45° C.),amount of MelBSt solubilized / extraction efficiency ([1]; 55° C.),"Rh (nm), hydrodynamic radius of micelles [2] [nm]",CMC [3] [mM],CMC (wt %) [3] [wt %],substrate-binding ability of LeuT [4],long-term maintenance of binding between β2AR and ligand [5],initial β2AR receptor activity ([3H]-DHA binding) [5],ability to conserve UapA transporter in a folded state [6]
CCCCCCCCCCCCC(CCCC(CCCCCCCCCCCC)(CO[C@@H]1OC(CO)[C@@H](O)C(O)C1O)CO[C@@H]1OC(CO)[C@@H](O)C(O)C1O)(CO[C@@H]1OC(CO)[C@@H](O)C(O)C1O)CO[C@@H]1OC(CO)[C@@H](O)C(O)C1O (stereo partly drawn) [TMG-A12],almost all MelBSt was successfully extracted,excellent protein extraction efficiency was able to be confirmed,3.3 ± 0.09,~0.010,~0.0012,substantially higher substrate-binding ability of the transporter than DDM; also recorded: well maintained for 10 days,,,
CCCCCCCCCCCCCC(CCCC(CCCCCCCCCCCCC)(CO[C@@H]1OC(CO)[C@@H](O)C(O)C1O)CO[C@@H]1OC(CO)[C@@H](O)C(O)C1O)(CO[C@@H]1OC(CO)[C@@H](O)C(O)C1O)CO[C@@H]1OC(CO)[C@@H](O)C(O)C1O (stereo partly drawn) [TMG-A13],,,3.6 ± 0.16,~0.006,~0.0007,,superior to DDM in terms of long-term maintenance of binding between the receptor and the ligand,as effective as DDM,excellent effect of stabilizing transporter folding
CCCCCCCCCCCCCCC(CCCC(CCCCCCCCCCCCCC)(CO[C@@H]1OC(CO)[C@@H](O)C(O)C1O)CO[C@@H]1OC(CO)[C@@H](O)C(O)C1O)(CO[C@@H]1OC(CO)[C@@H](O)C(O)C1O)CO[C@@H]1OC(CO)[C@@H](O)C(O)C1O (stereo partly drawn) [TMG-A14],,,3.8 ± 0.10,~0.004,~0.0005,,superior to DDM in terms of long-term maintenance of binding between the receptor and the ligand,,excellent effect of stabilizing transporter folding
CCCCCCCCCCCCCOCC(CO[C@@H]1OC(CO)[C@@H](O)C(O)C1O)(CO[C@@H]1OC(CO)[C@@H](O)C(O)C1O)CSCC(COCCCCCCCCCCCCC)(CO[C@@H]1OC(CO)[C@@H](O)C(O)C1O)CO[C@@H]1OC(CO)[C@@H](O)C(O)C1O (stereo partly drawn) [TMG-T13],,,3.3 ± 0.08,~0.006,~0.0008,a better characteristic than DDM,superior to DDM in terms of long-term maintenance of binding between the receptor and the ligand,as effective as DDM,excellent effect of stabilizing transporter folding
CCCCCCCCCCCCCCOCC(CO[C@@H]1OC(CO)[C@@H](O)C(O)C1O)(CO[C@@H]1OC(CO)[C@@H](O)C(O)C1O)CSCC(COCCCCCCCCCCCCCC)(CO[C@@H]1OC(CO)[C@@H](O)C(O)C1O)CO[C@@H]1OC(CO)[C@@H](O)C(O)C1O (stereo partly drawn) [TMG-T14],,,3.8 ± 0.09,~0.004,~0.0005,a better characteristic than DDM,superior to DDM in terms of long-term maintenance of binding between the receptor and the ligand; also recorded: most excellent in maintenance of binding between a receptor and a ligand,,excellent effect of stabilizing transporter folding
